Test results as given in patent US11352396B2, “Antimicrobial peptides and methods of using same” (Zoetis Services LLC, priority 2017, dated 2022).

Legend:
[1] = system: S. aureus ATCC 29213; assay type: cell-based; set-up: key to SA 29213: MIC in μM (lowest conc. with no visible growth); conditions: S. aureus 29213, Table 6
Procedure, shortened: (§1)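 Broth microdilution followed CLSI VET01-S2, with peptides serially diluted to in-assay concentrations of 50 μM to 0.05 μM. A 0.5 McFarland inoculum diluted 1:250 in Mueller-Hinton Broth was incubated with peptide for 18-20 hours. MIC was read visually as the first well without visible growth.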

[2] = system: E. coli ATCC 25922; assay type: cell-based; conditions: E. coli 25922, Table 6
Procedure, shortened: as §1

[3] = system: MSSP (Methicillin-Susceptible Staphylococcus pseudintermedius); test: MIC against selected strains of MSSP; assay type: cell-based; set-up: MIC MSSP 49051 / MIC MSSP 81923 / MIC MSSP 84250 / Effect on MSSP 86000 / Effect on MSSP 72036 / Effect on MSSP 78032: unit not given beside the values; Effect on MSSP 71990 / Effect on MSSP 86001 / Effect on MSSP 72191 / Effect on MSSP 76986 / Effect on MSSP 77378 / Effect on MSSP 81923 / Effect on MSSP 84250 / Effect on MSSP 84658: unit: µM; conditions: for SP 49051: S. pseudintermedius 49051, Table 6; for Effect on MSSP 71990: strain 71990, Table 5; for Effect on MSSP 72036: strain 72036, Table 5; for Effect on MSSP 72191: strain 72191, Table 5; for Effect on MSSP 76986: strain 76986, Table 5; for Effect on MSSP 77378: strain 77378, Table 5; for Effect on MSSP 78032: strain 78032, Table 5; for Effect on MSSP 81923: strain 81923, Table 5; for Effect on MSSP 84250: strain 84250, Table 5; for Effect on MSSP 84658: strain 84658, Table 5; for Effect on MSSP 86000: strain 86000, Table 5; for Effect on MSSP 86001: strain 86001, Table 5
Procedure, shortened: (§2)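 Broth microdilution MIC following CLSI VET01-S2: peptides titrated 50 μM to 0.05 μM in assay, inoculum a 0.5 McFarland suspension diluted 1:250 in Mueller-Hinton broth. Incubated overnight (18–20 h); MIC taken visually as lowest concentration without visible growth.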

[4] = system: MRSP (Methicillin-Resistant Staphylococcus pseudintermedius); test: MIC against selected strains of MRSP; assay type: cell-based; set-up: key to MIC MRSP 72192 / MIC MRSP 76923 / MR 71994 / Mr 88493 / MR 72035 / MR 72192 / MR 76923 / MR 79882 / MR 80279 / MR 81926 / MR 86002 / MR 87665: MIC in μM (visual, first well with no growth); conditions: for MR 71994: MRSP strain 71994, Table 6; for MR 72035: MRSP strain 72035, Table 6; for MR 72192: MRSP strain 72192, Table 6; for MR 76923: MRSP strain 76923, Table 6; for MR 79882: MRSP strain 79882, Table 6; for MR 80279: MRSP strain 80279, Table 6; for MR 81926: MRSP strain 81926, Table 6; for MR 86002: MRSP strain 86002, Table 6; for MR 87665: MRSP strain 87665, Table 6; for Mr 88493: MRSP strain 88493, Table 6
Procedure, shortened: as §2

[5] = system: Canine-derived epithelial keratinocyte (CPEK) cells; assay type: cell-based
Procedure, shortened: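 CPEK cells were dosed with peptides at 50 μM to 0.05 μM and incubated overnight at 37 °C, 5% CO2. Viability was read by CellTiter-Glo luminescence. Percent effect was normalised to 0.1% Triton X-100 (high) and phosphate buffer alone (zero).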

[6] = system: cRBC; assay type: cell-based, canine
Procedure, shortened: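 Washed, plasma-free red cells were incubated with peptide titrated from 50 µM to 0.05 µM for 1 h at 37 °C. Hemolysis was read as OD at 405 nm, scaled between phosphate buffer alone (0%) and 1% Triton X-100 (100%).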

Row | Substance | SA 29213 [1] | EC 25922 [2] [µM] | SP 49051 [3] | Effect on MSSP 71990 [3] | Effect on MSSP 72036 [3] | Effect on MSSP 72191 [3] | Effect on MSSP 76986 [3] | Effect on MSSP 77378 [3] | Effect on MSSP 78032 [3] | Effect on MSSP 81923 [3] | Effect on MSSP 84250 [3] | Effect on MSSP 84658 [3] | Effect on MSSP 86000 [3] | Effect on MSSP 86001 [3] | MR 71994 [4] | MR 72035 [4] | MR 72192 [4] | MR 76923 [4] | MR 79882 [4] | MR 80279 [4] | other results
1 | 110 (KWCFRVCYRGYCYRRCRD; Artificial Antimicrobial peptide) [compound 110] | 6.2 | 1.6 | 3.1 | 1.6 | 3.1 | 3.1 | 1.6 | 1.6 | 1.6 | 3.1 | 3.1 | 3.1 | 3.1 | 3.1 | 3.1 | 3.1 | 3.1 | 3.1 | 1.6 | 1.6 | MR 81926 [4]: 3.1; MR 86002 [4]: 3.1; MR 87665 [4]: 3.1; Mr 88493 [4]: 3.1; CPEK (50 μM) [5]: 10.7; cRBC (50 μM) [6]: 46.3
2 | 112 (KWCFRVCYRGICYRRCKD; Artificial Antimicrobial peptide) [compound 112] | 3.1 | 1.6 | 1.6 | 1.6 | 1.6 | 1.6 | 1.6 | 0.8 | 1.6 | 1.6 | 1.6 | 1.6 | 1.6 | 1.6 | 1.6 | 1.6 | 1.6 | 1.6 | 0.8 | 0.8 | MR 81926 [4]: 1.6; MR 86002 [4]: 1.6; MR 87665 [4]: 1.6; Mr 88493 [4]: 1.6; CPEK (50 μM) [5]: 14.2; cRBC (50 μM) [6]: 61.0
3 | 113 (KWCFRVCYRGICYRRCAD; Artificial Antimicrobial peptide) [compound 113] | 6.2 | 1.6 | 1.6 | 1.6 | 1.6 | 1.6 | 1.6 | 1.6 | 1.6 | 1.6 | 1.6 | 1.6 | 1.6 | 1.6 | 1.6 | 1.6 | 1.6 | 1.6 | 1.6 | 1.6 | MR 81926 [4]: 1.6; MR 86002 [4]: 1.6; MR 87665 [4]: 1.6; Mr 88493 [4]: 1.6; CPEK (50 μM) [5]: 15.7; cRBC (50 μM) [6]: 86.3
4 | 114 (KWCFRVCYRGICYRRCRR; Artificial Antimicrobial peptide) [compound 114] | 6.2 | 1.6 | 3.1 | 1.6 | 3.1 | 3.1 | 1.6 | 1.6 | 3.1 | 3.1 | 3.1 | 3.1 | 3.1 | 1.6 | 3.1 | 3.1 | 3.1 | 3.1 | 1.6 | 1.6 | MR 81926 [4]: 3.1; MR 86002 [4]: 3.1; MR 87665 [4]: 3.1; Mr 88493 [4]: 3.1; CPEK (50 μM) [5]: 11.9; cRBC (50 μM) [6]: 97.9
5 | 115 (GWCFRVCYRGICYRRCND; Artificial Antimicrobial peptide) [compound 115] | 3.1 | 0.8 | 1.6 | 1.6 | 1.6 | 1.6 | 1.6 | 0.8 | 1.6 | 1.6 | 1.6 | 1.6 | 1.6 | 1.6 | 1.6 | 1.6 | 1.6 | 1.6 | 0.8 | 1.6 | MR 81926 [4]: 1.6; MR 86002 [4]: 1.6; MR 87665 [4]: 1.6; Mr 88493 [4]: 1.6; CPEK (50 μM) [5]: 5.1; cRBC (50 μM) [6]: 94.6
